Active and inactive are the calls of the source. No cut-off for these calls is given here.
Legend:
[1] = molecular target: T1, eIF-2-alpha kinase GCN2 (Homo sapiens, UniProt Q9P2K8); assay: Inhibition of GCN2 (unknown origin)
[2] = molecular target: T1, eIF-2-alpha kinase GCN2; assay: Inhibition of GCN2 in human SK-OV-3 cells assessed as reduction in phosphorylation of eIF2alpha by cellular assay; assay type: cell-based
[3] = […] in Sprague-Dawley rat […] assessed as half life at 0.5 mg/kg,iv; assay type: ADME, organism-based
[4] = AUC (0-infinity) in Sprague-Dawley rat at 2 mg/kg,po; assay type: ADME, organism-based; parameters: time infinity, dose 2 mg/kg, route po; conditions: in vivo
[5] = Oral bioavailability in Sprague-Dawley rat at 2 mg/kg; assay type: ADME, organism-based; conditions: in vivo
[6] = molecular target: T2, Eukaryotic translation initiation factor 2-alpha kinase 1 (Homo sapiens, UniProt Q9BQI3); assay: Inhibition of HRI (unknown origin)
[7] = molecular target: T3, Interferon-induced, double-stranded RNA-activated protein kinase (Homo sapiens, UniProt P19525); assay: Inhibition of PKR (unknown origin)
[8] = molecular target: T4, Eukaryotic translation initiation factor 2-alpha kinase 3 (Homo sapiens, UniProt Q9NZJ5); assay: Inhibition of PERK (unknown origin)
T4 sequence (Q9NZJ5 whole entry): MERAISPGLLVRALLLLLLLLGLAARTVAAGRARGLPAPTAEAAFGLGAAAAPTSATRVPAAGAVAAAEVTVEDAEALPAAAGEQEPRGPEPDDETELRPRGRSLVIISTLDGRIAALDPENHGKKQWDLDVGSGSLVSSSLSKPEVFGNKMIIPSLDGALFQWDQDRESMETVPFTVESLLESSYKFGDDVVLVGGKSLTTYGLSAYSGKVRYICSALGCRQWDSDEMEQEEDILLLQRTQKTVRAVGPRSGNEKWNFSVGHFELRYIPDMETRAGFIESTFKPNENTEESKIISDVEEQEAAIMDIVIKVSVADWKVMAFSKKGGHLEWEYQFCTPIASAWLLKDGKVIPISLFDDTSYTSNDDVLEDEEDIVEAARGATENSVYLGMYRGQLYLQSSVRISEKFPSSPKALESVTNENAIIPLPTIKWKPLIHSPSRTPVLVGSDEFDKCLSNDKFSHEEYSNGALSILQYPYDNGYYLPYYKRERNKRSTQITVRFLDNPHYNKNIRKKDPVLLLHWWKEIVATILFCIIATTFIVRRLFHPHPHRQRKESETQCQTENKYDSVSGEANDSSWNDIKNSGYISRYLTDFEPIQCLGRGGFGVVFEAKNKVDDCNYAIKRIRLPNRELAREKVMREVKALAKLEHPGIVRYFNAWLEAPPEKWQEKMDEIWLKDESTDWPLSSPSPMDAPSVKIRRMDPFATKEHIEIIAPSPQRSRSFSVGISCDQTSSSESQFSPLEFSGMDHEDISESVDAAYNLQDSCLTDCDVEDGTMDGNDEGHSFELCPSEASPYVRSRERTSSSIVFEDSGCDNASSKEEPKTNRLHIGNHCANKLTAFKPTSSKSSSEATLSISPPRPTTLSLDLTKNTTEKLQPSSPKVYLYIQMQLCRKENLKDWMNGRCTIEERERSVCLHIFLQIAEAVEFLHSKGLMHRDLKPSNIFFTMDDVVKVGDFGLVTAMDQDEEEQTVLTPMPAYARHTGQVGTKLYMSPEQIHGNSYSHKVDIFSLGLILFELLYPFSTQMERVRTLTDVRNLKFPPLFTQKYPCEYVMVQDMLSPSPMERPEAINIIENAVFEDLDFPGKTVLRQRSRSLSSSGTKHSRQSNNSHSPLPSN

[9] = molecular target: CDK6/cyclin D3 (Homo sapiens, UniProt Q00534); assay: Inhibition of CDK6/Cyclin-D3 (unknown origin); assay type: protein-complex assay
[10] = molecular target: T5, Cyclin-dependent kinase-like 2 (Homo sapiens, UniProt Q92772); assay: Inhibition of CDKL2 (unknown origin)
T5 sequence (Q92772 whole entry): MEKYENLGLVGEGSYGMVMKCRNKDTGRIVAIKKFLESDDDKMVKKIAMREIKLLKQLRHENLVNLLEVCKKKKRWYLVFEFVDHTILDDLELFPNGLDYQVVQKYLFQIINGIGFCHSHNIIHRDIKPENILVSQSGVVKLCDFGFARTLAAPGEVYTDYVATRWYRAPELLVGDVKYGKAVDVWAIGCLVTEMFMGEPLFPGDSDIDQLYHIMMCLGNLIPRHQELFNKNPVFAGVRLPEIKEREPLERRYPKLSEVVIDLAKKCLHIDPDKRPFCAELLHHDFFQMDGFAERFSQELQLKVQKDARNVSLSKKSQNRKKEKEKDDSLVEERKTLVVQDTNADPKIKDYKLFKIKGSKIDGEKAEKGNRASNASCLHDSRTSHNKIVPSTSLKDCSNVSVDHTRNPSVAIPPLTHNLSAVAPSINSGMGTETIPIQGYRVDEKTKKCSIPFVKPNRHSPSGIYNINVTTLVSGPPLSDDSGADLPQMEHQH

[11] = molecular target: T6, Cyclin-dependent kinase-like 3 (Homo sapiens, UniProt Q8IVW4); assay: Inhibition of CDKL3 (unknown origin)
[12] = molecular target: T7, Cyclin-dependent kinase-like 4 (Homo sapiens, UniProt Q5MAI5); assay: Inhibition of CDKL4 (unknown origin)
[13] = molecular target: T8, Mitogen-activated protein kinase 10 (Homo sapiens, UniProt P53779); assay: Inhibition of JNK3 (unknown origin)
[14] = molecular target: T9, Transcription initiation factor TFIID subunit 1-like (Homo sapiens, UniProt Q8IZX4); assay: Inhibition of TAF1L (unknown origin)
[15] = molecular target: T2, Eukaryotic translation initiation factor 2-alpha kinase 1; assay: Inhibition of HRI (unknown origin) assessed as fold change
[16] = molecular target: T3, Interferon-induced, double-stranded RNA-activated protein kinase; assay: Inhibition of PKR (unknown origin) assessed as fold change
[17] = molecular target: T10, Eukaryotic translation initiation factor 2-alpha kinase 3 (Homo sapiens) (UniProt Q9NZJ5); assay: Inhibition of PERK (unknown origin) assessed as fold change
T10 sequence (whole entry): T4 sequence (Q9NZJ5 whole entry)

[18] = molecular target: CDK6/cyclin D3 (Homo sapiens) (UniProt P30281+Q00534); assay: Inhibition of CDK6/Cyclin-D3 (unknown origin) assessed as fold change; assay type: protein-complex assay
[19] = molecular target: T11, Cyclin-dependent kinase-like 2 (Homo sapiens) (UniProt Q92772); assay: Inhibition of CDKL2 (unknown origin) assessed as fold change
T11 sequence (whole entry): T5 sequence (Q92772 whole entry)

[20] = molecular target: T6, Cyclin-dependent kinase-like 3; assay: Inhibition of CDKL3 (unknown origin) assessed as fold change
[21] = molecular target: T7, Cyclin-dependent kinase-like 4; assay: Inhibition of CDKL4 (unknown origin) assessed as fold change
[22] = molecular target: T8, Mitogen-activated protein kinase 10; assay: Inhibition of JNK3 (unknown origin) assessed as fold change
[23] = molecular target: T9, Transcription initiation factor TFIID subunit 1-like; assay: Inhibition of TAF1L (unknown origin) assessed as fold change
[24] = molecular target: T1, eIF-2-alpha kinase GCN2; assay: Inhibition of GCN2 in human SK-OV-3 cells assessed as reduction in phosphorylation of eIF2alpha in presence of human serum by cellular assay; assay type: cell-based
[25] = Plasma protein binding (unknown origin) assessed as unbound fraction; assay type: ADME, cell-free
[26] = Clearance in Balb/c mouse at 0.5 mg/kg,iv; assay type: ADME, organism-based; conditions: in vivo
[27] = Volume of distribution at steady state in Balb/c mouse at 0.5 mg/kg,iv; assay type: ADME, organism-based; conditions: in vivo, read-out: Vdss
[28] = AUC (0-infinity) in Balb/c mouse at 2 mg/kg,po; assay type: ADME, organism-based; parameters: time infinity, dose 2 mg/kg, route po; conditions: in vivo
[29] = Oral bioavailability in Balb/c mouse at 2 mg/kg; assay type: ADME, organism-based; conditions: in vivo
[30] = system: Mus musculus; assay: In vivo inhibition of GCN2 in Balb/c mouse injected with […] Renca cells assessed as reduction in tumor GCN2 expression level at 15 mg/kg,po bid after 17 days; assay type: functional; conditions: Neoplasm, 408 h, time 17 day
[31] = system: Spleen; assay: In vivo inhibition of GCN2 in Balb/c mouse injected with […] Renca cells assessed as reduction in spleen GCN2 expression level at 15 mg/kg,po bid after 17 days; assay type: functional; conditions: 408 h, time 17 day
[32] = system: Mus musculus; assay: In vivo inhibition of GCN2 in Balb/c mouse injected with […] Renca cells assessed as reduction in ATF4 expression level at 15 mg/kg,po bid after 17 days by western blot analysis; assay type: functional; conditions: 408 h, time 17 day
[33] = system: Panc02; assay: Antitumor activity against […] Panc02 cells xenografted in mouse assessed as decrease in MDSC- induced suppression of CD8+ T cells at 600 nM incubated for 3 days; assay type: functional, cell-based; conditions: time 3.0 day
[34] = Antitumor activity against mouse LL2 cells xenografted in mouse assessed as tumor growth inhibition at 50 mg/kg,po bid measured after 26 days; assay type: functional; conditions: Lewis lung carcinoma, 624 h, time 26 day, read-out: TGI
[35] = Half life in Balb/c mouse at 0.5 mg/kg,iv; assay type: ADME, organism-based; conditions: in vivo
[36] = Antitumor activity against mouse LL2 cells xenografted in mouse assessed as tumor growth inhibition at 50 mg/kg,po bid in presence of anti-VEGFR antibody measured after 26 days; assay type: functional; conditions: Lewis lung carcinoma, 624 h, time 26 day, read-out: TGI

T1 sequence (Q9P2K8 whole entry): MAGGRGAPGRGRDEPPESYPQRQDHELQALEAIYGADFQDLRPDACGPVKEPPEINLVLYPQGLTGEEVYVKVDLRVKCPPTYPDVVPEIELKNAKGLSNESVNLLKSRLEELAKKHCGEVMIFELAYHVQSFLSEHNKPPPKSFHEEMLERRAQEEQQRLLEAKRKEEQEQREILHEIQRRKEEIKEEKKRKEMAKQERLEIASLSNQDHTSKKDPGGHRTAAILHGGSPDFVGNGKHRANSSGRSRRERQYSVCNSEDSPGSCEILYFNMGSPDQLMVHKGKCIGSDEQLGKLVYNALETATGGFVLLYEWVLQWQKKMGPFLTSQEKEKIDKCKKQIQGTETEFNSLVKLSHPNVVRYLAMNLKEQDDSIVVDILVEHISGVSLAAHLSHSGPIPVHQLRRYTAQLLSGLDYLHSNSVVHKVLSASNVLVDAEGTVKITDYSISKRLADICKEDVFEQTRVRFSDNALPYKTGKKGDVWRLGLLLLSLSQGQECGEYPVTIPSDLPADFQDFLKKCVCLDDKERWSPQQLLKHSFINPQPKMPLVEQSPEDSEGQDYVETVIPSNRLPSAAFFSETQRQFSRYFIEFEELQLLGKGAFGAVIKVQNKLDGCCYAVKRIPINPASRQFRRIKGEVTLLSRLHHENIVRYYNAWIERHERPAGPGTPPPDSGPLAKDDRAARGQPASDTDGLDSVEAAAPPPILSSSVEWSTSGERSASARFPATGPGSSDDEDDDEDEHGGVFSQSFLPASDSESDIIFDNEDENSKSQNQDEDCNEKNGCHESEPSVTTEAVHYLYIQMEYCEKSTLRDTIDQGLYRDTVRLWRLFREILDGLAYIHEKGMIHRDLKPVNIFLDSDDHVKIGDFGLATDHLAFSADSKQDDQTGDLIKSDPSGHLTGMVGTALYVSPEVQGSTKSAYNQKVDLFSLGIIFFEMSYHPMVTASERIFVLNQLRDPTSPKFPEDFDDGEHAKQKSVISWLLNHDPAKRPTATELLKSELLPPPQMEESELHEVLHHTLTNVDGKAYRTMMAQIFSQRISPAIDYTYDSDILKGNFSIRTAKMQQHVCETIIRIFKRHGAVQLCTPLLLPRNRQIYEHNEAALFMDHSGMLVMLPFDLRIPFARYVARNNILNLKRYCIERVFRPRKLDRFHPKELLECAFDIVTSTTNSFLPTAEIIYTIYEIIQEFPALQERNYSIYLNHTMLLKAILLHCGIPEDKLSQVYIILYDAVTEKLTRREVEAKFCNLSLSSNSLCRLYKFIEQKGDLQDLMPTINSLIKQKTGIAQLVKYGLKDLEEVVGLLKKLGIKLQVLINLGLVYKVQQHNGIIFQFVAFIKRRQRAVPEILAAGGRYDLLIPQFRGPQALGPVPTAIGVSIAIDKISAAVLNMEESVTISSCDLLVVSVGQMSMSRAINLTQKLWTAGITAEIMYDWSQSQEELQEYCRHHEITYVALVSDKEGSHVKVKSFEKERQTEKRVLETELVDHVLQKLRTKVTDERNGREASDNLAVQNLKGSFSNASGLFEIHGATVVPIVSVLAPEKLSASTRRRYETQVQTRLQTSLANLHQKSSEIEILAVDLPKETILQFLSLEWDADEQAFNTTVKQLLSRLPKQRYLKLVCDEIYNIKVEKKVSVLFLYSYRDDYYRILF
T9 sequence (Q8IZX4 whole entry): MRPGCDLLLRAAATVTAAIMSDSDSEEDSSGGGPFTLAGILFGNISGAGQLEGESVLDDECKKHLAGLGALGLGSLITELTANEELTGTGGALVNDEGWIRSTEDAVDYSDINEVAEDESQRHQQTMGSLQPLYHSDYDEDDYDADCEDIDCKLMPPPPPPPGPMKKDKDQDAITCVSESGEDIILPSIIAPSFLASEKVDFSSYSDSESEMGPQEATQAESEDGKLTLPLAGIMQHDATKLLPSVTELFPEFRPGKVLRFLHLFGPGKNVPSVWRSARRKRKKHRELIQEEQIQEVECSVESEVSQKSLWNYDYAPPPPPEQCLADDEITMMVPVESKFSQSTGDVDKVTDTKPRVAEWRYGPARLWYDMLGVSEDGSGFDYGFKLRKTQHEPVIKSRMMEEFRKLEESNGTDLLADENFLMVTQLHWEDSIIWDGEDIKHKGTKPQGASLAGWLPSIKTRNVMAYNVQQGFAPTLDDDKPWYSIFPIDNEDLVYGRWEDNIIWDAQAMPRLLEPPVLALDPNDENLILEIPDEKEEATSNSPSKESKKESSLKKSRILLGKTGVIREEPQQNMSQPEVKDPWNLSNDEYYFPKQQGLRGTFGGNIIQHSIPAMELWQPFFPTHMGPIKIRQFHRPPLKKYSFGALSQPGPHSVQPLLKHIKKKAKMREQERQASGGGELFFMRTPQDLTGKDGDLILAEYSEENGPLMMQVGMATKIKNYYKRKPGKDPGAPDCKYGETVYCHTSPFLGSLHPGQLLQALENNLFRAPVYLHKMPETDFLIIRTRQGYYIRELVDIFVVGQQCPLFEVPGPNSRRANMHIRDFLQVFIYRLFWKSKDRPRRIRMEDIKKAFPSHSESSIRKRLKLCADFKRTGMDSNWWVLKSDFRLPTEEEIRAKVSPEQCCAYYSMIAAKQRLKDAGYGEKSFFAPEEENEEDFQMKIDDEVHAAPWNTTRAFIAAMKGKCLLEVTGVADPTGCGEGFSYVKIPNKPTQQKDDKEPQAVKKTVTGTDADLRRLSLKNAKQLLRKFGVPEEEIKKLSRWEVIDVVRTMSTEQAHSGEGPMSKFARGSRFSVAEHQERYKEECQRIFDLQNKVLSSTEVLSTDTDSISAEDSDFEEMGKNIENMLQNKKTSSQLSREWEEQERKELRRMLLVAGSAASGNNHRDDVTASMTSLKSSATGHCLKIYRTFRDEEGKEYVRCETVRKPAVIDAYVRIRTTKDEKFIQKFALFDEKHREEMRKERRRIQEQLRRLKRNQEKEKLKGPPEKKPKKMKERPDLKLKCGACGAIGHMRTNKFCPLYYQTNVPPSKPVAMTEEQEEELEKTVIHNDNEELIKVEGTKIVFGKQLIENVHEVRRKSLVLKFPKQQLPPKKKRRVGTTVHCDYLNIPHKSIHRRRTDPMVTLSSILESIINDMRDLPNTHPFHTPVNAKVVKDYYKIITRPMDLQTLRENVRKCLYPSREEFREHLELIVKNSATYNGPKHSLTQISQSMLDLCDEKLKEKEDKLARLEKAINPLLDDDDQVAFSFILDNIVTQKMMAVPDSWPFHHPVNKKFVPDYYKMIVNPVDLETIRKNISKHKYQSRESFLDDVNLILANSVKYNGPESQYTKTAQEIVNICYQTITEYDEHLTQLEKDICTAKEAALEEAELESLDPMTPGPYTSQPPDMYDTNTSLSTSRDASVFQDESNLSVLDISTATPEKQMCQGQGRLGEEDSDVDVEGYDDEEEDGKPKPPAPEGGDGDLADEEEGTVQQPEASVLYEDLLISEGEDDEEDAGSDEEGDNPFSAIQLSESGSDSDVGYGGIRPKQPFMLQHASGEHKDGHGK
T8 sequence (P53779 whole entry): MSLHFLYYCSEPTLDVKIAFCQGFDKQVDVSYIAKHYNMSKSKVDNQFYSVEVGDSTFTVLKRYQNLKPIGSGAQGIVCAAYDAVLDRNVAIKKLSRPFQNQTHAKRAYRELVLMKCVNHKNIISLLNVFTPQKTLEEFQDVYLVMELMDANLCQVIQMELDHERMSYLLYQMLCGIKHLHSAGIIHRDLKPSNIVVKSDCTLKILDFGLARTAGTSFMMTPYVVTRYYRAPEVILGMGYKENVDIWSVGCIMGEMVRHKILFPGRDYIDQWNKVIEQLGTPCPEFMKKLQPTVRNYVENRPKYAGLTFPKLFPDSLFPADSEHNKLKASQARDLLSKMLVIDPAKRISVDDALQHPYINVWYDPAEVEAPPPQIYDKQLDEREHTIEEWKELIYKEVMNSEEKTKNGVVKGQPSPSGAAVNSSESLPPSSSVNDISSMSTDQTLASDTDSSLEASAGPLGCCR
T2 sequence (Q9BQI3 whole entry): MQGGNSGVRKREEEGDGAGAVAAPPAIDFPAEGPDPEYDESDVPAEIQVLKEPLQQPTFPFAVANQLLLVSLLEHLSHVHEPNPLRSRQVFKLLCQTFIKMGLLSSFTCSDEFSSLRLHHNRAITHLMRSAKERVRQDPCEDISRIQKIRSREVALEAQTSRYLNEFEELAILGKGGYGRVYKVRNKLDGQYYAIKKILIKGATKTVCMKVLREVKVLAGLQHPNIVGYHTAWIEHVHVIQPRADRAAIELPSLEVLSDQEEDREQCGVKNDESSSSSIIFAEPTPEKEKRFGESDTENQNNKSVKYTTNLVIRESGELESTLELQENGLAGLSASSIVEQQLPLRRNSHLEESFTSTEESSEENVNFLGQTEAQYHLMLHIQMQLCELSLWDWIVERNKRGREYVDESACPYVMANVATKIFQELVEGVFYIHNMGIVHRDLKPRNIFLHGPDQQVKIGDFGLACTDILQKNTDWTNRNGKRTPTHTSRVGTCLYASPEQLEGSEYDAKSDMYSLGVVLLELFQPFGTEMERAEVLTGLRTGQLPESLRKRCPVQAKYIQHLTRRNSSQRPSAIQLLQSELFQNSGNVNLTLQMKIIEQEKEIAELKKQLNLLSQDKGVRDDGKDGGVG
T3 sequence (P19525 whole entry): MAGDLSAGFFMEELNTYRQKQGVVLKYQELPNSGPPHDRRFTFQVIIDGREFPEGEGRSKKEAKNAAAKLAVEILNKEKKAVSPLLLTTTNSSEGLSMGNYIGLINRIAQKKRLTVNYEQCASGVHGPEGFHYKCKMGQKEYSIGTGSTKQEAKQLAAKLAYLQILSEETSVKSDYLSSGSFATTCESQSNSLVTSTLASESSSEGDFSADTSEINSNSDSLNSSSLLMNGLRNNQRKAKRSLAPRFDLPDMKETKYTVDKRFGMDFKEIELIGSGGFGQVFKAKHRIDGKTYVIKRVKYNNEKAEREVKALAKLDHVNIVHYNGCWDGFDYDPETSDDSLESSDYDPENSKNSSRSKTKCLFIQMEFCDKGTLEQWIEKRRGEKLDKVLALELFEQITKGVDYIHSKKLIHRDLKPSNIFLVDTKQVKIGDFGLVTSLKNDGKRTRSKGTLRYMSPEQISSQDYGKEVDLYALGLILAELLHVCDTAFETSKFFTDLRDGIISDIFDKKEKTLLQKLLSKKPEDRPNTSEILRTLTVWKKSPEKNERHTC

## CNC(=O)[C@]1(C)CC[C@@H](Nc2ncc3c(Br)nn(-c4ccc(-c5nnc(C)s5)cc4)c3n2)C1
[1]
  IC50: 5 nM
[2]
  IC50: 16 nM
[3]
  half-life: 0.867 h
[4]
  AUC(0-inf): 4600 ng·h/mL
[5]
  bioavailability: 80%
[6]
  IC50: > 1000 nM
[7]
  IC50: > 50000 nM
[8]
  IC50: > 50000 nM
[9]
  IC50: 191 nM
[10]
  IC50: 165 nM
[11]
  IC50: 143 nM
[12]
  IC50: 118 nM
[13]
  IC50: 101 nM
[14]
  IC50: 124 nM
[15]
  fold change (FC): > 200
[16]
  fold change (FC): > 10000
[17]
  fold change (FC): > 10000
[18]
  fold change (FC): 38
[19]
  fold change (FC): 33
[20]
  fold change (FC): 28
[21]
  fold change (FC): 23
[22]
  fold change (FC): 20
[23]
  fold change (FC): 25
[24]
  IC50: 1310 nM
[25]
  Fu: 1%
[26]
  clearance: 10 mL/min/kg
[27]
  Vd: 0.8 L/kg
[28]
  AUC(0-inf): 1680 ng·h/mL
[29]
  bioavailability: 50%
[30]
  inhibition in vivo at 15 mg/kg: 84%
[31]
  inhibition in vivo at 15 mg/kg: 80%
[32]
  inhibition in vivo at 15 mg/kg: 65%
[33]
  Activity: Active
[34]
  inhibition in vivo at 50 mg/kg: 56%
[35]
  half-life: 1.2 h
[36]
  inhibition in vivo at 50 mg/kg: 79%
